Experimental data published in article PMC7794376 (Nature Communications, 2021).
In brackets after ≈: the same amount, converted by molar mass. Several values for one entry are separate records, joined by “and”; a condition that tells them apart may be missing. Equal values may be shown once. Read-outs that look alike come from different tables or passages of the source.

Key:
MtbCoaBC [1] = molecular target: T1, MtbCoaBC (Mycobacterium tuberculosis, UniProt P9WNZ1); assay: biochemical; type: biochemical; conditions: for IC50: read-out: IC50 EnzChek MtbCoaBC; for Activity %: relative to average CT; for Activity: slope of absorbance at 360 nm vs time (s); for inhibition, replicates / reaction rate (slope of absorbance at 360 nm over time), replicates: IC50 MtbCoaBC AcCoA
MtbCoaBC [2] = molecular target: T1, MtbCoaBC; assay: High-throughput end-point pyrophosphate quantification assay (Biomol Green); type: biochemical
M. tuberculosis H37Rv = assay: MIC determination in different media; type: cell-based; conditions: Mycobacterium tuberculosis, read-out: Minimum inhibitory concentration (MIC)
MtbCoaBC [3] = molecular target: T1, MtbCoaBC; assay: Competition assays, first half of CoaB reaction (EnzChek, variable CTP or PPA); type: biochemical; conditions: for mode of inhibition: in words
MtbCoaBC [4] = molecular target: T1, MtbCoaBC; assay: CMP quantification assay (UPLC), second half of CoaB reaction, variable L-cysteine; type: biochemical; conditions: for CMP formation rate, uM CMP/uM protein.s-1: MtbCoaBC 32nM, replicates R1-R3
[5] = uM 1c 0.125 as printed, replicates R1-R3
[6] = MtbCoaB activity, end-point, 2 µM CTP, 40 µM L-cysteine, 30 µM PPA, read-out: IC50 biomol green assay
[7] = AcCoA concentration 512 (log 2.70927)
[8] = AcCoA concentration 1024 (log 3.0103)

T1 sequence (P9WNZ1 whole entry): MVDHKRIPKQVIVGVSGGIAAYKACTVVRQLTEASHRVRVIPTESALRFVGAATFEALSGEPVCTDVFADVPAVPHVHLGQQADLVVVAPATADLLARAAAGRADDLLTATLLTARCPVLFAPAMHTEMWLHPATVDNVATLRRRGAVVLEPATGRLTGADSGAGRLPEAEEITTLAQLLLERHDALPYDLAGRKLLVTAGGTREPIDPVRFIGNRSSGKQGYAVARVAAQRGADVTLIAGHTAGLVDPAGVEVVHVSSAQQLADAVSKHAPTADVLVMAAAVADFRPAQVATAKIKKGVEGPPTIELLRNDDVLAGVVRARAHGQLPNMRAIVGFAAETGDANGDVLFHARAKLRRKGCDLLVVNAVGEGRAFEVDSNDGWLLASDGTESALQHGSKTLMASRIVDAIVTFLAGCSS

SMILES: Oc1ccc(Cc2ccc(O)c(O)c2O)cc1 [compound 1c]
- IC50 (MtbCoaBC [1]): 4.6 ± 0.4 µM
- remaining activity at 0.03125 µM (MtbCoaBC [1]; uM 1c 0.03125 as printed, replicates R1-R3): 94.6%
- remaining activity at 0.0625 µM (MtbCoaBC [1]; uM 1c 0.0625 as printed, replicates R1-R3): 87.8%
- inhibition at 0.0625 µM (MtbCoaBC [1]; uM 1c 0.0625 as printed, replicates R1-R3, read-out: Inhibition %): 17.8%
- inhibition at […] (MtbCoaBC [1]; [5]): 29.1%
- remaining activity at […] (MtbCoaBC [1]; [5]): 74.8%
- remaining activity at 0.25 µM (MtbCoaBC [1]; uM 1c 0.25 as printed, replicates R1-R3): 65.6%
- inhibition at 0.25 µM (MtbCoaBC [1]; uM 1c 0.25 as printed, replicates R1-R3, read-out: Inhibition %): 40.6%
- remaining activity at 0.5 µM (MtbCoaBC [1]; uM 1c 0.5 as printed, replicates R1-R3): 40.9%
- inhibition at 0.5 µM (MtbCoaBC [1]; uM 1c 0.5 as printed, replicates R1-R3, read-out: Inhibition %): 68.6%
- inhibition at 1 µM (MtbCoaBC [1]; uM 1c 1 as printed, replicates R1-R3, read-out: Inhibition %): 89.7%
- inhibition at 2 µM (MtbCoaBC [1]; uM 1c 2 as printed, replicates R1-R3, read-out: Inhibition %): 95%
- IC50 (MtbCoaBC [2]; [6]): 4.7 µM
- MIC (M. tuberculosis H37Rv; 7H9/ADC/Glycerol): > 250 µM
- MIC (M. tuberculosis H37Rv; GAST/Fe): 125 µM (≈ 29 µg/mL)

SMILES: CC(=O)SCCNC(=O)CCNC(=O)[C@H](O)C(C)(C)COP(=O)(O)OP(=O)(O)OC[C@H]1O[C@@H](n2cnc3c(N)ncnc32)[C@H](O)[C@@H]1OP(=O)(O)O [AcCoA, acetyl-CoA]
- Activity % (MtbCoaBC [1]; 8 uM AcCoA, replicates R1-R3): 102.2% and 99.12% and 97.26%
- Inhibition % (MtbCoaBC [1]; 8 uM AcCoA, replicates R1-R3): 0.88% and 2.74% and -2.21%
- Activity (MtbCoaBC [1]; 8 uM AcCoA, replicates R1-R3): 0.0001687 and 0.0001636 and 0.0001606
- Activity % (MtbCoaBC [1]; 16 uM AcCoA, replicates R1-R3): 97.8% and 95.95%
- Inhibition % (MtbCoaBC [1]; 16 uM AcCoA, replicates R1-R3): 2.20% and 4.05%
- Activity (MtbCoaBC [1]; 16 uM AcCoA, replicates R1-R3): 0.0001621 and 0.0001615 and 0.0001584
- Activity % (MtbCoaBC [1]; 32 uM AcCoA, replicates R1-R3): 83.56% and 84.79% and 80.02%
- Inhibition % (MtbCoaBC [1]; 32 uM AcCoA, replicates R1-R3): 15.21% and 19.98% and 16.44%
- Activity (MtbCoaBC [1]; 32 uM AcCoA, replicates R1-R3): 0.0001379 and 0.00014 and 0.0001321
- Activity % (MtbCoaBC [1]; 64 uM AcCoA, replicates R1-R3): 72.03% and 75.67% and 69.98%
- Inhibition % (MtbCoaBC [1]; 64 uM AcCoA, replicates R1-R3): 24.33% and 30.02% and 27.97%
- Activity (MtbCoaBC [1]; 64 uM AcCoA, replicates R1-R3): 0.0001189 and 0.0001249 and 0.0001155
- Activity % (MtbCoaBC [1]; 128 uM AcCoA, replicates R1-R3): 46.95% and 48.75% and 44.16%
- Inhibition % (MtbCoaBC [1]; 128 uM AcCoA, replicates R1-R3): 51.25% and 55.84% and 53.05%
- Activity (MtbCoaBC [1]; 128 uM AcCoA, replicates R1-R3): 0.000077520 and 0.000080489 and 0.000072900
- Activity % (MtbCoaBC [1]; 256 uM AcCoA, replicates R1-R3): 25.68% and 25.48% and 26.76%
- Inhibition % (MtbCoaBC [1]; 256 uM AcCoA, replicates R1-R3): 74.52% and 73.24% and 74.32%
- Activity (MtbCoaBC [1]; 256 uM AcCoA, replicates R1-R3): 0.000042403 and 0.000042072 and 0.000044186
- IC50 (MtbCoaBC [1]; CoaB activity, […] CTP, […] PPA, 500 µM L-cysteine, average of three independent experiments ± SD): 121 ± 9 µM
- inhibition, replicates (MtbCoaBC [1]; [7]): 81.65 and 87.30 and 84.02
- reaction rate (slope of absorbance at 360 nm over time), replicates (MtbCoaBC [1]; [7]): 0.000026380 and 0.000030299 and 0.000020964
- inhibition, replicates (MtbCoaBC [1]; [8]): 99.03 and 98.19 and 97.42
- reaction rate (slope of absorbance at 360 nm over time), replicates (MtbCoaBC [1]; [8]): 0.000004262 and 0.000001602 and 0.000002982
- mode of inhibition (MtbCoaBC [3]; relative to CTP): competitive
- mode of inhibition (MtbCoaBC [3]; relative to PPA): competitive
- Inibition type (MtbCoaBC [3]; variable substrate CTP): C (C competitive inhibition)
- Ki (MtbCoaBC [3]; variable substrate CTP): 22.5 ± 1.7 µM
- Inibition type (MtbCoaBC [3]; variable substrate PPA): C (C competitive inhibition)
- Ki (MtbCoaBC [3]; variable substrate PPA): 22.4 ± 1.4 µM
- CMP formation rate, uM CMP/uM protein.s-1 (MtbCoaBC [4]; 32uM AcCoA, 31.25 uM cysteine): 0.1004 uM CMP/uM protein.s-1 and 0.1195 uM CMP/uM protein.s-1 and 0.1103 uM CMP/uM protein.s-1
- CMP formation rate, uM CMP/uM protein.s-1 (MtbCoaBC [4]; 32uM AcCoA, 62.5 uM cysteine): 0.1434 uM CMP/uM protein.s-1 and 0.1547 uM CMP/uM protein.s-1 and 0.1394 uM CMP/uM protein.s-1
- CMP formation rate, uM CMP/uM protein.s-1 (MtbCoaBC [4]; 32uM AcCoA, 250 uM cysteine): 0.2114 uM CMP/uM protein.s-1 and 0.2235 uM CMP/uM protein.s-1 and 0.2345 uM CMP/uM protein.s-1
- CMP formation rate, uM CMP/uM protein.s-1 (MtbCoaBC [4]; 32uM AcCoA, 500 uM cysteine): 0.2276 uM CMP/uM protein.s-1 and 0.2314 uM CMP/uM protein.s-1 and 0.2458 uM CMP/uM protein.s-1
- CMP formation rate, uM CMP/uM protein.s-1 (MtbCoaBC [4]; 64uM AcCoA, 31.25 uM cysteine): 0.08802 uM CMP/uM protein.s-1 and 0.06801 uM CMP/uM protein.s-1 and 0.07425 uM CMP/uM protein.s-1
- CMP formation rate, uM CMP/uM protein.s-1 (MtbCoaBC [4]; 64uM AcCoA, 62.5 uM cysteine): 0.1006 uM CMP/uM protein.s-1 and 0.1253 uM CMP/uM protein.s-1 and 0.1155 uM CMP/uM protein.s-1
- CMP formation rate, uM CMP/uM protein.s-1 (MtbCoaBC [4]; 64uM AcCoA, 250 uM cysteine): 0.1479 uM CMP/uM protein.s-1 and 0.156 uM CMP/uM protein.s-1 and 0.1565 uM CMP/uM protein.s-1
- CMP formation rate, uM CMP/uM protein.s-1 (MtbCoaBC [4]; 64uM AcCoA, 500 uM cysteine): 0.1756 uM CMP/uM protein.s-1 and 0.1564 uM CMP/uM protein.s-1 and 0.1555 uM CMP/uM protein.s-1
- CMP formation rate, uM CMP/uM protein.s-1 (MtbCoaBC [4]; 128uM AcCoA, 31.25 uM cysteine): 0.04605 uM CMP/uM protein.s-1 and 0.05632 uM CMP/uM protein.s-1 and 0.0514 uM CMP/uM protein.s-1
- CMP formation rate, uM CMP/uM protein.s-1 (MtbCoaBC [4]; 128uM AcCoA, 62.5 uM cysteine): 0.06616 uM CMP/uM protein.s-1 and 0.09648 uM CMP/uM protein.s-1 and 0.09325 uM CMP/uM protein.s-1
- CMP formation rate, uM CMP/uM protein.s-1 (MtbCoaBC [4]; 128uM AcCoA, 250 uM cysteine): 0.09625 uM CMP/uM protein.s-1 and 0.1011 uM CMP/uM protein.s-1 and 0.1018 uM CMP/uM protein.s-1
- CMP formation rate, uM CMP/uM protein.s-1 (MtbCoaBC [4]; 128uM AcCoA, 500 uM cysteine): 0.1011 uM CMP/uM protein.s-1 and 0.1154 uM CMP/uM protein.s-1 and 0.1123 uM CMP/uM protein.s-1
- mode of inhibition (MtbCoaBC [4]; relative to L-cysteine, in words): non-competitive inhibition
- Ki (MtbCoaBC [4]; variable substrate L-cysteine): 62.1 ± 2 µM

SMILES: O=c1cc(-c2ccccc2)oc2cc(O)c(O)c(O)c12 [2a]
- IC50 (MtbCoaBC [2]): 3.1 µM

SMILES: O=C(c1ccccc1)c1ccc(O)c(O)c1O [compound 1a]
- IC50 (MtbCoaBC [2]; [6]): 9 µM
